Measured values published in the NIST ThermoML archive (doi:10.1016/j.jct.2013.10.010).
± gives the expanded uncertainty stated by the source.

Legend:
[1] = φn = volume fraction of the nth substance listed; details: 298.15 K, Wilhelmy Plate Method
[2] = 298.15 K, Wilhelmy Plate Method

Compound `OCCO` [1,2-ethanediol] + O has a surface tension liquid-gas ([1]; φ1 = 0.1) of 68.3 ± 0.4 mN/m, a surface tension liquid-gas ([1]; φ1 = 0.2) of 64.8 ± 0.4 mN/m and a surface tension liquid-gas ([1]; φ1 = 0.3) of 61.5 ± 0.4 mN/m.
`C1COCCO1` [1,4-dioxane] + O showed a surface tension liquid-gas ([1]; φ1 = 0.1) of 54 ± 0.4 mN/m, a surface tension liquid-gas ([1]; φ1 = 0.2) of 52 ± 0.4 mN/m and a surface tension liquid-gas ([1]; φ1 = 0.3) of 46.6 ± 0.4 mN/m.
With `O` [water] the surface tension liquid-gas [2] was 71.8 ± 0.4 mN/m.
Compound `O` [water] + C1COCCO1 has a surface tension liquid-gas ([1]; φ2 = 0) of 71.8 ± 0.4 mN/m.
With `O` [water] + OCCO the surface tension liquid-gas ([1]; φ2 = 0) was 71.8 ± 0.4 mN/m.
